In ChEMBL document CHEMBL1201862, “PubChem BioAssay data set” (2004):
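Growth conditions: 96-well plates. Treatment: test compound, 48 hours, 5 concentrations. Analysis: linear interpolation between bracketing concentrations; unreached endpoints set to highest concentration. GI50: concentration for 50% inhibition of growth.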 Active and inactive are the calls of the source. Rule as the data show it: active = GI50 up to about 1.1 µM and inactive = higher.

Experiments:
Experiment in all cases: DTP human tumour cell line panel, 48 h
OVCAR-5 = tested on: OVCAR-5
NCI-H522 = tested on: NCI-H522
MDA-N = tested on: MDA-N
HCT-116 = tested on: HCT-116
U-251 = tested on: U-251
UACC-257 = tested on: UACC-257
NCI/ADR-RES = tested on: NCI/ADR-RES
SF-295 = tested on: SF-295
ACHN = tested on: ACHN
RPMI-8226 = tested on: RPMI-8226
SNB-19 = tested on: SNB-19
SK-MEL-5 = tested on: SK-MEL-5
Malme-3M = tested on: Malme-3M
UO-31 = tested on: UO-31
786-0 = tested on: 786-0
OVCAR-8 = tested on: OVCAR-8
COLO 205 = tested on: COLO 205
SN12C = tested on: SN12C
RXF 393 = tested on: RXF 393
Hs-578T = tested on: Hs-578T
SK-OV-3 = tested on: SK-OV-3
CAKI-1 = tested on: CAKI-1
MDA-MB-435 = tested on: MDA-MB-435
T47D = tested on: T47D
NCI-H23 = tested on: NCI-H23
DU-145 = tested on: DU-145
HL-60 = tested on: HL-60
KM12 = tested on: KM12
IGROV-1 = tested on: IGROV-1
SF-539 = tested on: SF-539
SW-620 = tested on: SW-620
M14 = tested on: M14
NCI-H226 = tested on: NCI-H226
K562 = tested on: K562
SK-MEL-2 = tested on: SK-MEL-2
A549 = tested on: A549
CCRF-CEM = tested on: CCRF-CEM
TK-10 = tested on: TK-10
NCI-H460 = tested on: NCI-H460
HT-29 = tested on: HT-29
HCT-15 = tested on: HCT-15
MCF7 = tested on: MCF7
MDA-MB-231 = tested on: MDA-MB-231
LOX IMVI = tested on: LOX IMVI
PC-3 = tested on: PC-3
A498 = tested on: A498
HOP-62 = tested on: HOP-62
BT-549 = tested on: BT-549
UACC-62 = tested on: UACC-62
SK-MEL-28 = tested on: SK-MEL-28
SNB-75 = tested on: SNB-75
SF-268 = tested on: SF-268
OVCAR-4 = tested on: OVCAR-4
MOLT-4 = tested on: MOLT-4
HOP-92 = tested on: HOP-92
OVCAR-3 = tested on: OVCAR-3
SR = tested on: SR
EKVX = tested on: EKVX
HCC 2998 = tested on: HCC 2998

Measured: GI50

O=c1/c(=C/c2ccc(-c3ccc(Cl)cc3Cl)o2)sc2n1[C@@H](c1ccc3c(c1)OCO3)C=C(c1cc(F)c(Cl)cc1Cl)N=2
inactive: OVCAR-5 58.7 µM | NCI-H522 49.1 µM | MDA-N 37.8 µM | HCT-116 35.4 µM | U-251 29.4 µM | UACC-257 22.6 µM | NCI/ADR-RES 45.9 µM | SF-295 40.7 µM | ACHN 69.2 µM | RPMI-8226 26.1 µM | SNB-19 28.8 µM | SK-MEL-5 28.5 µM | Malme-3M > 100 µM | UO-31 31.7 µM | 786-0 42.9 µM | OVCAR-8 42 µM | COLO 205 38.7 µM | SN12C 57.3 µM | RXF 393 39.4 µM | Hs-578T 14 µM | SK-OV-3 21.5 µM | CAKI-1 > 100 µM | MDA-MB-435 33.2 µM | T47D 21.1 µM | NCI-H23 38.5 µM | DU-145 63.7 µM | HL-60 27.2 µM | KM12 57.5 µM | IGROV-1 34.3 µM | SF-539 35.3 µM | SW-620 35.8 µM | M14 28 µM | NCI-H226 20.7 µM | K562 35.2 µM | SK-MEL-2 26 µM | A549 46.1 µM | CCRF-CEM 38.7 µM | TK-10 7.78 µM | NCI-H460 37 µM | HT-29 25.6 µM | MCF7 26 µM | MDA-MB-231 22.6 µM | LOX IMVI 34.8 µM | PC-3 69 µM | A498 2.26 µM | HOP-62 5.87 µM | BT-549 37.8 µM | UACC-62 16 µM | SK-MEL-28 91.8 µM | SNB-75 > 100 µM | SF-268 46.3 µM | OVCAR-4 33.3 µM | MOLT-4 28.2 µM | HOP-92 31.1 µM
34.1 µM: HCT-15

Cc1cccc(Nc2nc3ccccc3nc2NS(=O)(=O)c2ccc(N)cc2)c1
34.1 µM: HCT-15
inactive: OVCAR-5 > 100 µM | NCI-H522 18 µM | MDA-N 45.9 µM | OVCAR-3 38.5 µM | HCT-116 33.1 µM | U-251 20.7 µM | UACC-257 41.4 µM | NCI/ADR-RES 36.1 µM | SF-295 34.8 µM | ACHN 32.2 µM | RPMI-8226 23.4 µM | SNB-19 31.3 µM | SK-MEL-5 35.5 µM | Malme-3M 78.7 µM | UO-31 16.2 µM | 786-0 30 µM | OVCAR-8 39.6 µM | COLO 205 21.1 µM | SN12C 36.6 µM | RXF 393 18.5 µM | Hs-578T 49.5 µM | SK-OV-3 54.8 µM | SR 19.8 µM | CAKI-1 30.7 µM | MDA-MB-435 38.6 µM | T47D 34.5 µM | EKVX 54.3 µM | NCI-H23 5.61 µM | DU-145 37.2 µM | HL-60 28.1 µM | KM12 26.7 µM | IGROV-1 33 µM | SF-539 19.1 µM | SW-620 17.6 µM | M14 37.8 µM | NCI-H226 60.4 µM | K562 25.2 µM | SK-MEL-2 24.9 µM | A549 23.8 µM | CCRF-CEM 15.2 µM | TK-10 32.5 µM | NCI-H460 32.5 µM | HT-29 48.3 µM | HCC 2998 30.9 µM | MCF7 24.4 µM | MDA-MB-231 36.3 µM | LOX IMVI 52.1 µM | PC-3 29.6 µM | HOP-62 25.7 µM | BT-549 9.42 µM | UACC-62 38.4 µM | SK-MEL-28 27.7 µM | SNB-75 52.8 µM | SF-268 63.7 µM | OVCAR-4 10 µM | MOLT-4 11.7 µM | HOP-92 40.3 µM
